Experimental data: patent US4459290A, “C-23-Modified derivatives of OMT, pharmaceutical compositions and method of use” (priority 1982, dated 1984)
In brackets after ≈: the same amount, converted by molar mass. Read-outs that look alike come from different tables or passages of the source.

Assays:
[1] = tested on: Pasteurella hemolytica 41D; experiment: MIC, broth-dilution microtiter test (Table VII); format: cell-based; settings: Pasteurella, P. hemolytica 41D, read-out: MIC
In short: (§1)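 Growth inhibition in liquid medium, in a routine microtiter broth-dilution series, gave the MIC against staphylococci and pasteurellae; the gram-negative enteric strain was tested by conventional agar dilution instead.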

Mycoplasma synoviae = experiment: MIC, broth-dilution microtiter test (Table VII); format: cell-based; settings: Mycoplasmopsis synoviae; M. synoviae; broth-dilution microtiter; read-out: MIC
Protocol: (§2) Especially noteworthy is the improved activity against gram-negative bacteria for several derivatives when compared to the activity of OMT. […] The MIC's in Tables V and VI were determined by standard agar-dilution assays. The MIC's in Table VII were obtained using a conventional broth-dilution microtiter test.

Mycoplasma hyorhinis = experiment: MIC, broth-dilution microtiter test (Table VII); format: cell-based; settings: M. hyorhinis; broth-dilution microtiter; read-out: MIC
Protocol: as §2

[2] = tested on: Pasteurella hemolytica 23C; experiment: MIC, broth-dilution microtiter test (Table VII); format: cell-based; settings: Pasteurella, P. hemolytica 23C, read-out: MIC
In short: as §1

[3] = tested on: Streptococcus pyogenes C203; experiment: ED50 in mice experimentally infected with S. pyogenes C203 (Table VIII); format: in vivo
Protocol: The C-23 modified derivatives of OMT of this invention have shown in vivo antimicrobial activity against experimental infections. When two doses of test compound were administered to mice experimentally infected with a gram-positive bacterium, S. pyogenes C203, the activity observed was measured as an ED50 value [effective dose in mg/kg to protect 50% of the test animals: see Warren Wick, et al., J. Bacteriol. 81, 233-235 (1961)].

[4] = tested on: Pseudomonas aeruginosa X239; experiment: MIC, standard agar-dilution assay (Table VI); format: cell-based
Protocol: as §2

Salmonella typhi 1335 = experiment: MIC, standard agar-dilution assay (Table VI); format: cell-based; settings: Salmonella enterica
Protocol: as §2

[5] = tested on: Klebsiella pneumoniae X68; experiment: MIC, standard agar-dilution assay (Table VI); format: cell-based; settings: X68
Protocol: as §2

Proteus morganii PR15 = experiment: MIC, standard agar-dilution assay (Table VI); format: cell-based; settings: Morganella morganii
Protocol: as §2

Serratia marcescens SE3 = experiment: MIC, standard agar-dilution assay (Table VI); format: cell-based
Protocol: as §2

Serratia marcescens X99 = experiment: MIC, standard agar-dilution assay (Table VI); format: cell-based
Protocol: as §2

[6] = tested on: Enterobacter aerogenes C32; experiment: MIC, standard agar-dilution assay (Table VI); format: cell-based; settings: Klebsiella aerogenes, C32
Protocol: as §2

Proteus rettgeri PR7 = experiment: MIC, standard agar-dilution assay (Table VI); format: cell-based; settings: Providencia rettgeri
Protocol: as §2

Proteus rettgeri C24 = experiment: MIC, standard agar-dilution assay (Table VI); format: cell-based; settings: Providencia rettgeri, P. rettgeri C24
Protocol: as §2

[7] = tested on: Enterobacter aerogenes EB17; experiment: MIC, standard agar-dilution assay (Table VI); format: cell-based; settings: Klebsiella aerogenes, EB17
Protocol: as §2

Enterobacter cloacae EB5 = experiment: MIC, standard agar-dilution assay (Table VI); format: cell-based
Protocol: as §2

[8] = tested on: Pseudomonas aeruginosa Ps18; experiment: MIC, standard agar-dilution assay (Table VI); format: cell-based
Protocol: as §2

Proteus inconstans PR33 = experiment: MIC, standard agar-dilution assay (Table VI); format: cell-based; settings: Providencia alcalifaciens, PR33
Protocol: as §2

[9] = tested on: Pseudomonas aeruginosa X528; experiment: MIC, standard agar-dilution assay (Table VI); format: cell-based
Protocol: as §2

[10] = tested on: Citrobacter freundii CF17; experiment: MIC, standard agar-dilution assay (Table VI); format: cell-based; settings: CF17
Protocol: as §2

[11] = tested on: Salmonella heidelberg X514; experiment: MIC, standard agar-dilution assay (Table VI); format: cell-based; settings: Salmonella enterica, X514
Protocol: as §2

[12] = tested on: Staphylococcus aureus V41; experiment: MIC, standard agar-dilution assay (Table V); format: cell-based; settings: Staphylococcus aureus, V41
Protocol: as §2

[13] = tested on: Staphylococcus epidermidis EPI1; experiment: MIC, standard agar-dilution assay (Table V); format: cell-based; settings: Staphylococcus epidermidis
Protocol: as §2

[14] = tested on: Klebsiella pneumoniae KAE; experiment: MIC, standard agar-dilution assay (Table V); format: cell-based; settings: Klebsiella pneumoniae
In short: as §1

Escherichia coli EC14 = experiment: MIC, standard agar-dilution assay (Table V); format: cell-based; settings: Escherichia coli
In short: as §1

[15] = tested on: Staphylococcus epidermidis EPI2; experiment: MIC, standard agar-dilution assay (Table V); format: cell-based; settings: Staphylococcus epidermidis
Protocol: as §2

[16] = tested on: Staphylococcus aureus X1.1; experiment: MIC, standard agar-dilution assay (Table V); format: cell-based; settings: Staphylococcus aureus
Protocol: as §2

[17] = tested on: Staphylococcus aureus X400; experiment: MIC, standard agar-dilution assay (Table V); format: cell-based; settings: Staphylococcus aureus
Protocol: as §2

Streptococcus Group 9960 = experiment: MIC, standard agar-dilution assay (Table V); format: cell-based; settings: GROUP9960
Protocol: as §2

[18] = tested on: Streptococcus Group D X66; experiment: MIC, standard agar-dilution assay (Table V); format: cell-based; settings: Streptococcus Group D X66; agar dilution; read-out: MIC
Protocol: as §2

Shigella sonnei N9 = experiment: MIC, standard agar-dilution assay (Table V); format: cell-based
In short: as §1

[19] = tested on: Klebsiella pneumoniae X26; experiment: MIC, standard agar-dilution assay (Table V); format: cell-based; settings: Klebsiella pneumoniae, X26
Protocol: as §2

Escherichia coli N10 = experiment: MIC, standard agar-dilution assay (Table V); format: cell-based; settings: Escherichia coli, N10
In short: as §1

[20] = tested on: Staphylococcus aureus S13E; experiment: MIC, standard agar-dilution assay (Table V); format: cell-based; settings: Staphylococcus aureus, S13E
Protocol: as §2

[21] = tested on: Haemophilus influenzae Holt; experiment: MIC, standard agar-dilution assay (Table V); format: cell-based; settings: Haemophilus influenzae; H. influenzae Holt, ampicillin-sensitive strain; agar dilution; read-out: MIC
Protocol: (§3) The MIC's in Tables V and VI were determined by standard agar-dilution assays. The MIC's in Table VII were obtained using a conventional broth-dilution microtiter test.

[22] = tested on: Streptococcus pyogenes C203; experiment: MIC, standard agar-dilution assay (Table V); format: cell-based; settings: Streptococcus pyogenes
Protocol: as §3

[23] = tested on: Haemophilus influenzae R252; experiment: MIC, standard agar-dilution assay (Table V); format: cell-based; settings: Haemophilus influenzae
Protocol: as §3

[24] = C203, sc, mice, subcutaneous, doses given 1 and 4 hours postinfection, read-out: ED50, Subcutaneous

SMILES | MIC [1] [µg/mL] | MIC (Mycoplasma synoviae) [µg/mL] | MIC (Mycoplasma hyorhinis) [µg/mL] | MIC [2] [µg/mL] | ED50 ([3]; C203, po, read-out: ED50, Oral) [mg/kg] | ED50 [3, 24] [mg/kg] | MIC (Salmonella typhi 1335) [µg/mL] | MIC [5] [µg/mL] | MIC [6] [µg/mL] | MIC (Proteus rettgeri C24) [µg/mL] | MIC [7] [µg/mL] | MIC (Proteus inconstans PR33) [µg/mL] | MIC [10] [µg/mL] | MIC [11] [µg/mL] | MIC [12] [µg/mL] | MIC [14] [µg/mL] | MIC (Streptococcus Group 9960) [µg/mL] | MIC [18] [µg/mL] | MIC (Shigella sonnei N9) [µg/mL] | MIC [19] [µg/mL] | also measured
CCC1OC(=O)CC(O)C(C)C(OC2OC(C)C(O)C(N(C)C)C2O)C(CC=O)CC(C)C(=O)C=CC(C)=CC1CSC(C)=O (stereo not shown) [Compound 7, 23-Deoxy-23-(acetyl)thio-OMT] | 6.25 (≈ 9.53 µM) | ≤ 0.05 | 6.25 (≈ 9.53 µM) | 6.25 (≈ 9.53 µM) | > 100 | 21.4 | > 128 | > 128 | > 128 | 64 (≈ 97.6 µM) | > 128 | > 128 | > 128 | > 128 | 0.25 (≈ 0.381 µM) | > 128 | 0.25 (≈ 0.381 µM) | 0.5 (≈ 0.762 µM) | 64 (≈ 97.6 µM) | 4 (≈ 6.1 µM) | MIC ([4]; X239): > 128 µg/mL; MIC (Proteus morganii PR15; PR15): > 128 µg/mL; MIC (Serratia marcescens SE3; SE3): > 128 µg/mL; MIC (Serratia marcescens X99; X99): > 128 µg/mL; MIC (Proteus rettgeri PR7; PR7): > 128 µg/mL; MIC (Enterobacter cloacae EB5; EB5): > 128 µg/mL; MIC ([8]; PS18): > 128 µg/mL; MIC ([9]; P. aeruginosa X528, agar dilution, read-out: MIC): 32 µg/mL (≈ 48.8 µM); MIC ([13]; EPI1): 0.125 µg/mL (≈ 0.191 µM); MIC (Escherichia coli EC14; E. coli EC14, agar dilution, read-out: MIC): 64 µg/mL (≈ 97.6 µM); MIC ([15]; EPI2): 0.125 µg/mL (≈ 0.191 µM); MIC ([16]; X1.1): 0.25 µg/mL (≈ 0.381 µM); MIC ([17]; X400): 0.25 µg/mL (≈ 0.381 µM); MIC (Escherichia coli N10): 64 µg/mL (≈ 97.6 µM); MIC [20]: 0.125 µg/mL (≈ 0.191 µM); MIC [21]: 1 µg/mL (≈ 1.52 µM); MIC ([22]; C203): 0.25 µg/mL (≈ 0.381 µM); MIC ([23]; R252): 2 µg/mL (≈ 3.05 µM)
CCC1OC(=O)CC(O)C(C)C(OC2OC(C)C(O)C(N(C)C)C2O)C(CC=O)CC(C)C(=O)C=CC(C)=CC1CSc1ccccc1 (stereo not shown) [Compound 2, 23-Deoxy-23-(phenyl)thio-OMT] | 1.56 (≈ 2.26 µM) | 0.39 (≈ 0.565 µM) | 12.5 (≈ 18.1 µM) | 3.12 (≈ 4.52 µM) | > 100 | 25.7 | 64 (≈ 92.8 µM) | 32 (≈ 46.4 µM) | 32 (≈ 46.4 µM) | 16 (≈ 23.2 µM) | 32 (≈ 46.4 µM) | 32 (≈ 46.4 µM) | 32 (≈ 46.4 µM) | 64 (≈ 92.8 µM) | 0.125 (≈ 0.181 µM) | 64 (≈ 92.8 µM) | 0.5 (≈ 0.725 µM) | 0.06 (≈ 0.087 µM) | 16 (≈ 23.2 µM) | 2 (≈ 2.9 µM) | MIC ([4]; P. aeruginosa X239, agar dilution, read-out: MIC): 64 µg/mL (≈ 92.8 µM); MIC (Proteus morganii PR15; P. morganii PR15, agar dilution, read-out: MIC): 8 µg/mL (≈ 11.6 µM); MIC (Serratia marcescens SE3; S. marcescens SE3, agar dilution, read-out: MIC): 64 µg/mL (≈ 92.8 µM); MIC (Serratia marcescens X99; S. marcescens X99, agar dilution, read-out: MIC): 64 µg/mL (≈ 92.8 µM); MIC (Proteus rettgeri PR7; P. rettgeri PR7, agar dilution, read-out: MIC): 16 µg/mL (≈ 23.2 µM); MIC (Enterobacter cloacae EB5; E. cloacae EB5, agar dilution, read-out: MIC): 64 µg/mL (≈ 92.8 µM); MIC ([8]; P. aeruginosa Ps18, agar dilution, read-out: MIC): 64 µg/mL (≈ 92.8 µM); MIC ([9]; X528): 16 µg/mL (≈ 23.2 µM); MIC ([13]; S. epidermidis EPI1, agar dilution, read-out: MIC): 0.125 µg/mL (≈ 0.181 µM); MIC (Escherichia coli EC14; EC14): 32 µg/mL (≈ 46.4 µM); MIC ([15]; S. epidermidis EPI2, agar dilution, read-out: MIC): 0.125 µg/mL (≈ 0.181 µM); MIC ([16]; S. aureus X1.1, agar dilution, read-out: MIC): 0.125 µg/mL (≈ 0.181 µM); MIC ([17]; S. aureus X400, methicillin-resistant strain, agar dilution, read-out: MIC): 0.125 µg/mL (≈ 0.181 µM); MIC (Escherichia coli N10): 32 µg/mL (≈ 46.4 µM); MIC [20]: 0.06 µg/mL (≈ 0.087 µM); MIC [21]: 1 µg/mL (≈ 1.45 µM); MIC ([22]; S. pyogenes C203, agar dilution, read-out: MIC): 0.015 µg/mL (≈ 0.0217 µM); MIC ([23]; H. influenzae R252, ampicillin-resistant strain, agar dilution, read-out: MIC): 1 µg/mL (≈ 1.45 µM)
